Results as given in patent US10912767B2, “Anthracycline prodrugs and methods of making and using the same” (THE REGENTS OF THE UNIVERSITY OF COLORADO, priority 2015, dated 2021).

Legend:
[1] = In vivo body weight change as indication of toxicity; parameters: species or system nude mice; conditions: 4 mg/kg dox equivalent iv weekly x6; photodoxazolidine with 18-FDG ip
Description: (§1) For reconstitution for intravenous injection into mice, dry photodoxazolidine R═H (23 mg) was dissolved in 785 μL of DMSO for a final concentration of 34.5 mM, labeled “Drug Stock,” and stored dark at −20° C. Shortly before injection, the Drug Stock was thawed and 20-50 μL was transferred to a new tube. To this tube, 6 volumes (relative to the Drug Stock volume) of PEG-400 and 4 volumes of propylene glycol (PG) were added and the solution thoroughly mixed by vortexing. Immediately prior to injection, 9 volumes of saline (0.9% NaCl) was added to the DMSO/PEG/PG solution of photodoxazolidine and mixed by vortexing. […] Therefore, this formulation was used as prepared. This protocol produces a final formulation of 5% DMSO, 30% PEG-400, 20% PG, 45% saline. A standard injection of 100 μL of this formulation delivers 4 mg dox equivalent/kg body weight for a mouse weighing 0.025 kg.
(§2) Luciferase-positive MDA-MB-231 cells were maintained in MEM culture medium supplemented with 10% heat inactivated fetal bovine serum and 2% penicillin/streptomycin. Prior to injection, typsinized cell populations were counted with a Z1 Coulter Particle counter, centrifuged, and resuspended in Hank's Balanced Salt Solution (HBSS) at a concentration of 4.0×10^7 cells/mL. […] Body weight and tumor growth were measured regularly. Tumor growth was measured optically from the bioluminescence signal from injection of luciferin. […]

[2] = Photolysis timecourses, near UV blacklight 350 nm, HPLC; type: physicochemical
Excerpt: In order to investigate the photolysis of the drugs in a system amenable to cell culture use, a custom UV irradiation apparatus was constructed, consisting of 3 small blacklight fluorescent bulbs (Southern New England Ultraviolet Co., λmax=350 nm) set between two ring stands and suspended at a height of 11.5 cm. The bulbs' housing was reflective aluminum so as to direct as much UV irradiation as possible downward toward the plate. Upon installation in sterile cell culture hood, the power of the system was measured at approximately 6-7 mW using a Scientech laser power meter. Prior to experimentation, the hood and irradiation apparatus was sterilized with 254 nm germicidal UV irradiation overnight. Using this setup, 100 μM of 4,5-dimethoxy-2-nitrobenyl alcohol (DMNA), photodoxazolidine R═H, and glucose-PEG-photodoxazoldine were irradiated in individual wells of a 24-well plate. Initially, 50 μL of a DMSO stock was diluted with 950 μL of PBS and aliquots of 50 μL were removed at various times (0-180 min), mixing by pipetting each time. The timepoints were analyzed by HPLC (method 2) and plotted as fractional conversion versus time. […] Therefore, a second experiment was performed in which the PBS was replaced with 1:1 acetonitrile:water. With this system of 5% DMSO/47.5% acetonitrile/47.5% water, no visible precipitation was produced over the course of the reaction.
The measured quantum yield of 0.002 for photodoxazolidine R═H (above) was lower than expected, which raised the possibility that the presence of the anthraquinone ring complex in the prodrugs was inhibiting photocleavage by quenching the activated state. To test whether this, the irradiation kinetics of DMNA (4, 5-dimethoxy-2-nitrobenzyl alcohol) was compared against photodoxazolidine R═H, which contains the DMNA unit as the photoactivating group. Additionally, glucose-PEG-photodoxazoldine was included for comparison; a synthetic precursor to this compound, azido-PEG-photodoxazolidine, is suspected of having a quantum yield of 0.01-0.02, which is 5-10-fold larger than photodoxazolidine. Irradiation was performed in 24-well cell culture dishes using the cell culture irradiation system described above with the soft-glass high-pass filter. […] In both cases, photodoxazolidine was the slowest to produce dox from the irradiation. In line with its quantum yield, glucose-PEG-photodoxazolidine reacted 4-5-fold faster than photodoxazolidine. However, DMNA was by far the fastest to undergo photochemistry in this system, converting to product approximately 30-fold faster than photodoxazolidine.

[3] = tested on: orthotopic MDA-MB-231 human breast tumor xenografts; test: In vivo mouse efficacy, tumor bioluminescence; parameters: species or system nude mice; conditions: 4 mg/kg dox equivalent iv + 18-FDG ip, weekly x6
Description: as §1, §2

SMILES: COc1cc(COC(=O)N2COC3C(C)OC(OC4CC(O)(C(=O)CO)Cc5c(O)c6c(c(O)c54)C(=O)c4c(OC)cccc4C6=O)CC32)c([N+](=O)[O-])cc1OC (stereo not drawn) [Photodoxazolidine]
- body weight change [1]: no significant change
- k in ACN: H2O, relative rate constant for photocleavage ([2]; 100 μM, 1:1 acetonitrile:water, near UV 350 nm): 0.0069 min⁻¹
- k in PBS, relative rate constant for photocleavage ([2]; 100 μM, PBS, near UV 350 nm): 0.0026 min⁻¹
- k in ACN: H2O, fold over photodoxazolidine ([2]; 1:1 acetonitrile:water): (1.0)
- k in PBS, fold over photodoxazolidine ([2]; PBS): (1.0)
- tumor bioluminescence [3]: significant reductions in tumor bioluminescence
